Structures can show the parent of a compound that is named as a salt. Where two headings read alike, the source gives them in different places.
Assays:
δ-opiate receptor = target: T1, δ-opiate receptor (Rattus norvegicus, UniProt P33533); assay: δ-opiate receptor binding, displacement of (^3H)-2-D-Ala-deltorphin II on rat brain homogenates; set-up: species or system rat (male Wistar rats)
T1 construct: freshly prepared rat brain was homogenised in 50 mmoles/l Tris-HCl (pH 7.4); from tissue; host or cells: rat brain without cerebellum, pons and medulla oblongata, male Wistar rats; membrane homogenate
Method: Investigations for determining the affinity of compounds of formula I according to the invention for the δ-opiate receptor, which is a crucial prerequisite for analgesic properties, were performed on […] homogenates (rat brain homogenates, without the cerebellum, pons and medulla oblongata, from male Wistar rats). Selected compounds of formula I were used for the detection of δ-opiate receptor properties.
For this purpose, freshly prepared rat brain was homogenised in 50 mmoles/l Tris-HCl (pH 7.4) whilst cooling in ice, and was centrifuged for 10 minutes at 5000 g. After decanting and discarding the supernatant liquor, and renewed take-up and homogenisation of the membrane sediment in 50 mmoles/l Tris-HCl (pH 7.4), the homogenate was subsequently centrifuged for 20 minutes at 20,000 g and 4° C. This washing step was repeated once more. Thereafter, the supernatant liquor was decanted and the membrane sediment was homogenised in cold 50 mmoles/l Tris-HCl, 20% glycerol (w/v), 0.01% bacitracin (w/v) (pH 7.4) and was frozen in aliquots until testing was performed.
For the receptor binding tests, the aliquots were thawed out and diluted 1:10 with the binding test buffer.
The buffer used in the binding test comprised 50 mmoles/l Tris-HCl, 5 mmoles/l MgCl (pH 7.4), supplemented with 0.1% (w/v) bovine serum albumin. […] (^3 H)-2-D-Ala-deltorphin II was used as the radioactive ligand. The proportion of non-specific binding was determined in the presence of 10 mmoles/l naloxon.
The compounds according to the invention were added to further batches in series of concentrations and the displacement of the radioactive ligand from its specific binding site was determined. The respective triple batches were incubated for 90 minutes at 37° C. and were subsequently harvested by means of filtration through glass fibre filters (GF/B) for the determination of the radioactive ligand bound to the membrane homogenate. The radioactivity of the glass fibre filter discs was measured in a β-counter after adding a scintillator.
The affinity of the compounds according to the invention for the δ-opiate receptor was calculated as the IC50 according to the law of mass action by means of nonlinear regression. The K values in Table 1 are given as the mean value±the standard deviation from three mutually independent tests.

cancer patients = conditions: intrathecal, cancer patients on whom morphine no longer had an analgesic effect; cited from earlier work
[1] = 90 minutes at 37° C., pH 7.4, mean value ± standard deviation from three independent tests, read-out: δ-opiate receptor binding Ki
[2] = meaning of the second figure not stated, read-out: δ-opiate receptor binding Ki, second unlabelled figure printed behind the mean ± standard deviation

T1 sequence (P33533 whole entry): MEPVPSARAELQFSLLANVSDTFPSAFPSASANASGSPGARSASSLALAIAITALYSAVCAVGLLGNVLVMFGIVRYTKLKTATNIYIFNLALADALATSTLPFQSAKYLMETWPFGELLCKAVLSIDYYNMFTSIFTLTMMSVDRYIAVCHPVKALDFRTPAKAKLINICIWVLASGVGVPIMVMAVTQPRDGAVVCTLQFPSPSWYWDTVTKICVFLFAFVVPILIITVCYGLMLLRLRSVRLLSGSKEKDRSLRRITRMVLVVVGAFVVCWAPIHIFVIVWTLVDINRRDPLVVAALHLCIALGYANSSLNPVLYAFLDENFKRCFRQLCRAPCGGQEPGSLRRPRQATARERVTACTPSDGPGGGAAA

COc1ccc2c(c1)SCCC(CN(C)C)=C2c1cccc(O)c1 [Example 2h, 3-(4-dimethylaminomethyl-8-methoxy-2,3-dihydrobenzo[b]thiepin-5-yl)-phenolhydrochloride]
Ki (δ-opiate receptor; [1]): 2.67 nM | Ki (δ-opiate receptor; [2]): 1.76 nM

COc1ccc2c(c1)[S+]([O-])CCC(CN(C)C)=C2c1cccc(O)c1 (centres unmarked) [Example 9a, 3-(4-dimethylaminomethyl-8-methoxy-1-oxo-2,3-dihydro-1H-1-2-4-benzo[b]thiepin-5-yl)-phenol hydrochloride]
Ki (δ-opiate receptor; [1]): 1.75 nM

CN(C)CC1=C(c2cccc(O)c2)c2ccc3c(c2OC1)OCCO3 [Example 2d, 3-(7-dimethylaminomethyl-2,3-dihydro-6H-1,4,5,-trioxa-phenanthren-8-yl)-phenol hydrochloride]
Ki (δ-opiate receptor; [1]): 18.4 ± 1.6 nM

CN(C)CC1=C(c2cccc(O)c2)c2ccccc2OCC1 [Example 2e, 3-(4-dimethylaminomethyl-2,3-dihydro-benzo[b]oxepin-5-yl)-phenol hydrochloride]
Ki (δ-opiate receptor; [1]): 8.5 ± 3 nM

CN(C)CC1=C(c2cccc(O)c2)c2ccc3ccccc3c2OC1 [Example 2b, 3-(3-dimethylaminomethyl-2H-benzo[b]chromen-4-yl-phenol hydrochloride]
Ki (δ-opiate receptor; [1]): 348 ± 65 nM

CN(C)CC1=C(c2cccc(O)c2)c2ccccc2OC1 [Example 7, 3-(3-dimethylaminomethyl-2H-chromen-4-yl)-phenol hydrochloride]
Ki (δ-opiate receptor; [1]): 68.4 ± 8.4 nM

CN(C)CC1=C(c2cccc(O)c2)c2ccccc2[S+]([O-])CC1 (racemic) [Example 3, 3-(4-dimethylaminomethyl-1-oxo-2,3-dihydro-1H-1λ^4-benzo[b]thiepin-5-yl)-phenol hydrochloride]
Ki (δ-opiate receptor; [1]): 2.1 ± 0.13 nM

CN(C)CC1=C(c2cccc(O)c2)c2cc(O)ccc2OC1(C)C [Example 8, 3-dimethylaminomethyl-4-(3-hydroxy-phenyl)-2,2-di-methyl-2H-chromen-6-ol hydrochloride]
Ki (δ-opiate receptor; [1]): 393 ± 46 nM

D-alanine^2 -D-leucine^5 enkeplialin [DADL]
analgesic effect (cancer patients): long-lasting analgesic effect

CN(C)CC1=C(c2cccc(O)c2)c2ccc(O)cc2SCC1 [Example 11b, 4-dimethylaminomethyl-5-(3-hydroxy-phenyl)-2,3-dihydro-benzo[b]thiepin-8-ol hydrochloride]
Ki (δ-opiate receptor; [1]): 6.43 nM | Ki (δ-opiate receptor; [2]): 6.71 nM

CN(C)CC1=C(c2cccc(O)c2)c2ccc3ccccc3c2SC1 [Example 2c, 3-(2-dimethylaminomethyl-3H-4-thiaphenanthren-1-yl)-phenol hydrochloride]
Ki (δ-opiate receptor; [1]): 137 ± 13 nM

CN(C)CC1=C(c2cccc(O)c2)c2ccccc2SC1 [Example 5, 3-(3-dimethylaminomethyl-2H-thiochromen-4-yl)-phenol hydrochloride]
Ki (δ-opiate receptor; [1]): 68.2 ± 10.1 nM

CN(C)CC1=C(c2cccc(O)c2)c2ccccc2SCC1 [Example 1, 3-(4-dimethylaminomethyl-2,3-dihydro-benzo[b]thiepin-5-yl)-phenol hydrochloride]
Ki (δ-opiate receptor; [1]): 10.2 ± 4.5 nM

COc1ccc2c(c1)OCCC(CN(C)C)=C2c1cccc(O)c1 [Example 2g, 3-(4-dimethylaminomethyl-8-methoxy-2,3-dihydrobenzo[b]oxepin-5-yl)-phenol hydrochloride]
Ki (δ-opiate receptor; [1]): 6.19 nM | Ki (δ-opiate receptor; [2]): 6.01 nM
